# Measurements published in patent US5196427A, “3-aryl-4(3H) quinazolinone CCK antagonists and pharmaceutical formulations thereof” (Eli Lilly and Company, priority 1991, dated 1993).
# Target: T1, Brain CCK receptor (Mus musculus, UniProt P56481)
# T1 construct: from tissue; host or cells: forebrain membranes of male CF-1 mice
# T1 sequence (P56481 1-453): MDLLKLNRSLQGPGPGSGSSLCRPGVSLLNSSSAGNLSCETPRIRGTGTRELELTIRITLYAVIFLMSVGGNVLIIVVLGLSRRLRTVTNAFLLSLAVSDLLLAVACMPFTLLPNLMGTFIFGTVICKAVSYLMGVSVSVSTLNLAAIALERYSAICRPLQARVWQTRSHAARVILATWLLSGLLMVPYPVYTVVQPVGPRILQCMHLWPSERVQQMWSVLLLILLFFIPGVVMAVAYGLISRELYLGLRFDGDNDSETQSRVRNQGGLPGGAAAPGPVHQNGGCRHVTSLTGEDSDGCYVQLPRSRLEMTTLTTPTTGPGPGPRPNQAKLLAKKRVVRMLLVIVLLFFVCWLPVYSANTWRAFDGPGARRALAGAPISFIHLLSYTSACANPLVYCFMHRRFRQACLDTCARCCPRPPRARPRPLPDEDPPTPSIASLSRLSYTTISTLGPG
# Assay: Brain CCK receptor binding (mouse brain membranes, 125I-CCK-8 sulfate)
# Details: not given
# Description: Brain CCK receptor binding was performed using mouse brain membranes according to the method of Chang and Lotti (Proc. Natl. Acad. Sci. 83: 4923-4926, 1986). Male CF-1 mice, 23-25 g were sacrificed by cervical dislocation, the forebrain removed and placed in ice cold 50 mM Tris buffer, pH 7.4. The tissue was homogenized in 100 volumes of the Tris buffer with a Brinkman Polytron or Tekmar Tissumizer and then centrifuged at 40,000 g for 10 min. Pellets were resuspended in Tris buffer, centrifuged as above and then resuspended in 100 volumes of assay buffer, pH 6.5 (20 mM N-2-hydroxyethyl-piperazine-N'-2-ethane sulfonic acid (HEPES), 1 mM ethylene glycol bis(2-aminoethyl ether-N,N,N',N'-tetraaceticacid) (EGTA), 5 mM MgCl2, 130 mM NaCl, and 0.25 mg/ml bacitracin). The binding assay consisted of 50 μL of compound (or buffer for total binding), 50 μL of ^125 I-CCK-8 sulfate (20 pM) (Amersham IM-159), 200 μL of assay buffer and 200 μL of homogenate (80-120 μg protein). The samples were incubated at room temperature (25°) for 2 hours, and they were then filtered through GF/B glass fiber filters (soaked in wash buffer for 2 hours before use) using a 48 well Brandel cell harvester designed for receptor binding. The filters were washed twice with 3 ml of 50 mM Tris buffer, pH 7.4, containing 0.01% BSA and then counted for radioactivity in plastic tubes with a Micromedic 10/600 automatic gamma counter.
# Compounds were dissolved in dimethyl sulfoxide (DMSO) at a concentration of 10 mM and then further diluted with assay buffer. […] IC-50 values of displacement curves were determined using 7 concentrations of compound and were calculated using the ALLFIT computer program of DeLean, Munson and Rodbard (Am. J. Physiol. 235: E97-E102, 1978). Non-specific binding was determined as the displacement of the radioligand by 100 nM CCK-8 sulfate.
row,SMILES,IC50 [nM]
1,COc1ccc(-n2c(CCc3c[nH]c4ccccc34)nc3ccccc3c2=O)cc1 [Example 51],98 ± 7

# Same assay, conditions: mouse brain membranes; 1 μM
row,inhibition at 1 µM [%],SMILES
1,57,"COc1cccc(-n2c(CC(c3ccccc3)c3c[nH]c4ccccc34)nc3ccccc3c2=O)c1 (centres unmarked) [Example 5, 2-[2-Phenyl-2-(3-indolyl)ethyl]-3-(3-methoxyphenyl)-4-(3H)quinazolinone]"
2,85,CCCc1cc(-n2c(CCc3c[nH]c4ccc(Br)cc34)nc3ccccc3c2=O)ccc1OC [Example 43]
3,90,CC(C)Oc1cccc(-n2c(CCc3c[nH]c4ccc(Br)cc34)nc3ccc(Cl)cc3c2=O)c1 [Example 66]

# Same assay, conditions: mouse brain membranes; 10 μM; read-out: Brain % inhibition in binding assay
row,inhibition at 10 µM [%],SMILES
1,35,O=c1c2ccccc2nc(CCc2c[nH]c3ccccc23)n1-c1ccccc1C(F)(F)F [Example 11]
2,70,COc1cccc(-n2c(CC(Cc3ccccc3)c3c[nH]c4ccccc34)nc3ccccc3c2=O)c1 (centres unmarked) [Example 65]

# Same assay, conditions: mouse brain membranes; Mean ± SEM, n = 3; values without SEM n = 1; read-out: Brain IC50
row,IC50 [nM],SMILES
1,410,"COc1ccc2[nH]cc(CCc3nc4ccccc4c(=O)n3-c3ccccc3)c2c1 [Example 3, 2-[2-(5-methoxyindol-3-yl)-ethyl]-3-phenyl-4-(3H)quinazolinone]"
2,110 ± 10,COc1cccc(-n2c(CCc3c[nH]c4ccc(F)cc34)nc3ccccc3c2=O)c1 [Example 18]
3,47 ± 3,COc1cccc(-n2c(CCc3c[nH]c4ccc(Cl)cc34)nc3ccccc3c2=O)c1 [Example 19]
4,55 ± 3,COc1cccc(-n2c(CCc3c[nH]c4ccc(C)cc34)nc3ccccc3c2=O)c1 [Example 21]
5,67 ± 5,COc1cccc(-n2c(CCc3c[nH]c4ccc(OC)cc34)nc3ccccc3c2=O)c1 [Example 22]
6,33,CCOc1cccc(-n2c(CCc3c[nH]c4ccc(OC)cc34)nc3ccccc3c2=O)c1 [Example 24]
7,26 ± 0.3,CC(C)Oc1cccc(-n2c(CCc3c[nH]c4ccccc34)nc3ccccc3c2=O)c1 [Example 25]
8,19 ± 5,CC(C)Oc1cccc(-n2c(CCc3c[nH]c4ccc(Cl)cc34)nc3ccccc3c2=O)c1 [Example 26]
9,19,COc1ccc2[nH]cc(CCc3nc4ccccc4c(=O)n3-c3cccc(OC(C)C)c3)c2c1 [Example 27]
10,46 ± 8,CSc1cccc(-n2c(CCc3c[nH]c4ccc(Br)cc34)nc3ccccc3c2=O)c1 [Example 32]
11,34,COc1ccc2[nH]cc(CCc3nc4ccccc4c(=O)n3-c3cccc(SC)c3)c2c1 [Example 33]
12,230 ± 30,O=c1c2ccccc2nc(CCc2c[nH]c3ccc(Br)cc23)n1-c1cccc(C(F)(F)F)c1 [Example 34]
13,230,O=c1c2ccccc2nc(CCc2c[nH]c3ccc(Cl)cc23)n1-c1cccc(C(F)(F)F)c1 [Example 35]
14,190,Cc1ccc2[nH]cc(CCc3nc4ccccc4c(=O)n3-c3cccc(C(F)(F)F)c3)c2c1 [Example 36]
15,130,COc1ccc2[nH]cc(CCc3nc4ccccc4c(=O)n3-c3cccc(C(F)(F)F)c3)c2c1 [Example 37]
16,16 ± 1,CN(C)c1cccc(-n2c(CCc3c[nH]c4ccc(Br)cc34)nc3ccccc3c2=O)c1 [Example 38]
17,13,CN(C)c1cccc(-n2c(CCc3c[nH]c4ccc(Cl)cc34)nc3ccccc3c2=O)c1 [Example 39]
18,22 ± 3,O=c1c2ccccc2nc(CCc2c[nH]c3ccc(Br)cc23)n1-c1cccc(N2CCCC2)c1 [Example 40]

row,IC50 [nM],SMILES
1,1800,COc1cc(OC)cc(-n2c(CCc3c[nH]c4ccccc34)nc3ccccc3c2=O)c1 [Example 41]
2,190 ± 40,O=c1c2ccccc2nc(CCc2c[nH]c3ccccc23)n1-c1ccc2c(c1)OCO2 [Example 42]
3,65,CCOc1ccc(-n2c(CCc3c[nH]c4ccc(Br)cc34)nc3ccccc3c2=O)cc1C [Example 44]
4,29,COc1ccc(-n2c(CCc3c[nH]c4ccc(Br)cc34)nc3ccccc3c2=O)cc1C [Example 45]
5,130 ± 30,COc1ccc(-n2c(CCc3c[nH]c4ccc(Br)cc34)nc3ccccc3c2=O)cc1OC [Example 46]
6,28 ± 4,CCc1ccc(-n2c(CCc3c[nH]c4ccc(Br)cc34)nc3ccccc3c2=O)cc1 [Example 47]
7,37 ± 13,CC(C)c1ccc(-n2c(CCc3c[nH]c4ccc(Br)cc34)nc3ccccc3c2=O)cc1 [Example 48]
8,38,CC(C)c1ccc(-n2c(CCc3c[nH]c4ccc(Cl)cc34)nc3ccccc3c2=O)cc1 [Example 49]
9,930,CCCCc1ccc(-n2c(CCc3c[nH]c4ccc(Br)cc34)nc3ccccc3c2=O)cc1 [Example 50]
10,88 ± 10,CCOc1ccc(-n2c(CCc3c[nH]c4ccc(Br)cc34)nc3ccccc3c2=O)cc1 [Example 53]
11,1200,CCCOc1ccc(-n2c(CCc3c[nH]c4ccc(Br)cc34)nc3ccccc3c2=O)cc1 [Example 54]
12,110 ± 20,CC(C)Oc1ccc(-n2c(CCc3c[nH]c4ccc(Br)cc34)nc3ccccc3c2=O)cc1 [Example 55]
13,1100,CCCCOc1ccc(-n2c(CCc3c[nH]c4ccc(Br)cc34)nc3ccccc3c2=O)cc1 [Example 56]
14,33 ± 6,CN(C)c1ccc(-n2c(CCc3c[nH]c4ccc(Br)cc34)nc3ccccc3c2=O)cc1 [Example 57]
15,87,CN(C)c1ccc(-n2c(CCc3c[nH]c4ccc(Cl)cc34)nc3ccccc3c2=O)cc1 [Example 58]
16,47,CCN(CC)c1ccc(-n2c(CCc3c[nH]c4ccc(Br)cc34)nc3ccccc3c2=O)cc1 [Example 59]
17,37 ± 10,CSc1ccc(-n2c(CCc3c[nH]c4ccc(Br)cc34)nc3ccccc3c2=O)cc1 [Example 60]
18,100,COc1cccc(-n2c(CC(C)c3c[nH]c4ccc(Br)cc34)nc3ccccc3c2=O)c1 (centres unmarked) [Example 63]

row,SMILES,IC50 [nM]
1,O=c1c2ccccc2nc(CCc2c[nH]c3cc(Cl)ccc23)n1-c1ccccc1 [Example 7],1100

# Same assay, conditions: read-out: Brain % inhibition in binding assay, mouse brain membranes; 10 μM
row,SMILES,inhibition at 10 µM [%]
1,"O=c1c2ccccc2nc(Cc2c[nH]c3ccccc23)n1-c1ccccc1 [Example 2, 2-(3-Indolylmethyl)-3-phenyl-4-(3H)quinazolinone]",36
2,O=c1c2ccccc2nc(CCc2c[nH]c3ccccc23)n1-c1ccccc1F [Example 8],75
3,O=c1c2ccccc2nc(CCc2c[nH]c3ccccc23)n1-c1ccccc1Cl [Example 9],44
4,COc1ccccc1-n1c(CCc2c[nH]c3ccccc23)nc2ccccc2c1=O [Example 10],74
